# In patent publication US20050244486A1, “Topical methadone compositions and methods for using the same” (priority 2004, published 2005):
# Several values for one entry are separate records, joined by “and”; a condition that tells them apart may be missing. Equal entries are not always repeated. Where two headings read alike, the source gives them in different places.
# Assays:
# [1] = Study 1: concentrations of methadone in rat plasma, topical administration versus intravenous injection; assay type: in vivo; conditions: rat, in vivo, read-out: Concentrations of Methadone in Rat Plasma Samples
# Description: (§1) The test article was administered intravenously (IV) through the tail vein to animals in Group A. The injection was performed slowly. A gauze pad (1×1 cm) Saturated with 0.2 mL of the appropriate test article was applied to the clipped site on the back of the animals in Groups 2 and 3. The gauze pad was secured by occlusive tape. The animal was wrapped in gauze, which was held in place with Zonas porous tape.
# (§2) Blood Collection: Blood (0.5 mL) was collected into sodium heparin tubes at the appropriate time points. The samples were centrifuged at approximately 2800 rpm at 2-8 degrees Celsius for approximately 15 minutes. Plasma was collected.
# [2] = Study 2: concentrations of methadone in rat plasma, topical administration versus intravenous injection; assay type: in vivo
# Description: as §1, §2
# [3] = Pharmacokinetic study B: methadone patch, human plasma; assay type: in vivo; conditions: topical, Study B: 5 × 5 cm SIS patch (Methadone 10 weight %), 25 mg Methadone free base, applied 12 hours, left leg inner side above knee, 55 kg person, read-out: Concentrations of Methadone in Human Plasma Samples
# [4] = Pharmacokinetic study A: topical Methadone-DEET solution, human plasma; conditions: 10% solution in DEET, one-day application to the skin
# [5] = iv, 0.125 mg/animal, Study 1 Group A: I.V. tail vein, 0.25 mL Test Article 1 (0.5 mg/mL Methadone-Saline Solution), individual rats A1-A3
compound,measurement,setting,value
"CCC(=O)C(CC(C)N(C)C)(c1ccccc1)c1ccccc1 (stereo not drawn) [Methadone, 6-dimethylamino-4,4-diphenyl-3-hepatone]",concentration at 120 min,"[1]; 0.2 mL of 10% methadone solution, Study 1 Group C: topical dorsal flank, 1 × 1 cm gauze pad with 0.2 mL Test Article 3 (Methadone-DEET Solution 10%), 120 min, individual rats C1-C3",6.85 ng/mL
same,concentration at 10 min,"[1]; 0.2 mL of 23.9% methadone solution, Study 1 Group B: topical dorsal flank, 1 × 1 cm gauze pad with 0.2 mL Test Article 2 (Methadone-Diisopropyl Adipate Solution 23.9%), individual rats B1-B3",3.02 ng/mL
same,concentration at 20 min,"[1]; 0.2 mL of 23.9% methadone-diisopropyl adipate solution, Study 1 Group B: topical dorsal flank, 1 × 1 cm gauze pad with 0.2 mL Test Article 2 (Methadone-Diisopropyl Adipate Solution 23.9%), 20 min, individual rats B1-B3",4.14 ng/mL
same,concentration at 45 min,"[1]; 0.2 mL of 23.9% methadone-diisopropyl adipate solution, Study 1 Group B: topical dorsal flank, 1 × 1 cm gauze pad with 0.2 mL Test Article 2 (Methadone-Diisopropyl Adipate Solution 23.9%), 45 min, individual rats B1-B3",11.5 ng/mL
same,concentration at 60 min,"[1]; 0.2 mL of 23.9% methadone-diisopropyl adipate solution, Study 1 Group B: topical dorsal flank, 1 × 1 cm gauze pad with 0.2 mL Test Article 2 (Methadone-Diisopropyl Adipate Solution 23.9%), individual rats B1-B3",11.3 ng/mL
same,concentration at 2 min,"[1]; iv, 0.125 mg/animal, Study 1 Group A: I.V. tail vein, 0.25 mL Test Article 1 (0.5 mg/mL Methadone-Saline Solution), 2 min, individual rats A1-A3",73.5 ng/mL
same,concentration at 5 min,"[1]; iv, 0.125 mg/animal, Study 1 Group A: I.V. tail vein, 0.25 mL Test Article 1 (0.5 mg/mL Methadone-Saline Solution), 5 min, individual rats A1-A3",68.7 ng/mL
same,concentration at 10 min,[1]; [5],61.8 ng/mL
same,concentration at 30 min,"[1]; iv, 0.125 mg/animal, Study 1 Group A: I.V. tail vein, 0.25 mL Test Article 1 (0.5 mg/mL Methadone-Saline Solution), 30 min, individual rats A1-A3",35.3 ng/mL
same,concentration at 60 min,[1]; [5],22.8 ng/mL
same,Irritation of rat skin by topical application,"[2]; Study 2, topical methadone solutions on rat skin",lack of irritation
same,Concentrations of Methadone in Rat Plasma Samples,"[2]; Study 2 Group A: I.V. tail vein, 0.25 mL Test Article 1 (0.5 mg/mL Methadone-Saline Solution), 2 min, individual rats A1-A3",72.0 ng/mL and 63.1 ng/mL
same,Concentrations of Methadone in Rat Plasma Samples,"[2]; Study 2 Group A: I.V. tail vein, 0.25 mL Test Article 1 (0.5 mg/mL Methadone-Saline Solution), 20 min, individual rats A1-A3",49.2 ng/mL and 59.5 ng/mL
same,Concentrations of Methadone in Rat Plasma Samples,"[2]; Study 2 Group A: I.V. tail vein, 0.25 mL Test Article 1 (0.5 mg/mL Methadone-Saline Solution), 40 min, individual rats A1-A3",33.0 ng/mL and 35.2 ng/mL
same,Concentrations of Methadone in Rat Plasma Samples,"[2]; Study 2 Group A: I.V. tail vein, 0.25 mL Test Article 1 (0.5 mg/mL Methadone-Saline Solution), 60 min, individual rats A1-A3",19.7 ng/mL and 24.0 ng/mL
same,Concentrations of Methadone in Rat Plasma Samples,"[2]; Study 2 Group A: I.V. tail vein, 0.25 mL Test Article 1 (0.5 mg/mL Methadone-Saline Solution), 120 min, individual rats A1-A3",19.5 ng/mL and 13.1 ng/mL and 9.26 ng/mL
same,Concentrations of Methadone in Rat Plasma Samples,"[2]; Study 2 Group A: I.V. tail vein, 0.25 mL Test Article 1 (0.5 mg/mL Methadone-Saline Solution), 480 min, individual rats A1-A3",1.83 ng/mL and 1.96 ng/mL
same,Concentrations of Methadone in Rat Plasma Samples,"[2]; Study 2 Group A: I.V. tail vein, 0.25 mL Test Article 1 (0.5 mg/mL Methadone-Saline Solution), 1440 min, individual rats A1-A3",2.31 ng/mL and 0.923 ng/mL
same,Concentrations of Methadone in Rat Plasma Samples,"[2]; Study 2 Group A: I.V. tail vein, 0.25 mL Test Article 1 (0.5 mg/mL Methadone-Saline Solution), 2160 min, individual rats A1-A3",0.905 ng/mL and 0.944 ng/mL
same,Concentrations of Methadone in Rat Plasma Samples,"[2]; Study 2 Group B: topical dorsal flank, 1 × 1 cm gauze pad with 0.2 mL Test Article 2 (Methadone-Diisopropyl Adipate Solution 23.9%), 15 min, individual rats B1-B3",1.49 ng/mL and 1.70 ng/mL
same,Concentrations of Methadone in Rat Plasma Samples,"[2]; Study 2 Group B: topical dorsal flank, 1 × 1 cm gauze pad with 0.2 mL Test Article 2 (Methadone-Diisopropyl Adipate Solution 23.9%), 45 min, individual rats B1-B3",5.66 ng/mL and 3.96 ng/mL and 17.0 ng/mL
same,Concentrations of Methadone in Rat Plasma Samples,"[2]; Study 2 Group B: topical dorsal flank, 1 × 1 cm gauze pad with 0.2 mL Test Article 2 (Methadone-Diisopropyl Adipate Solution 23.9%), 90 min, individual rats B1-B3",14.3 ng/mL and 27.1 ng/mL
same,Concentrations of Methadone in Rat Plasma Samples,"[2]; Study 2 Group B: topical dorsal flank, 1 × 1 cm gauze pad with 0.2 mL Test Article 2 (Methadone-Diisopropyl Adipate Solution 23.9%), 120 min, individual rats B1-B3",41.4 ng/mL and 19.1 ng/mL and 44.9 ng/mL
same,Concentrations of Methadone in Rat Plasma Samples,"[2]; Study 2 Group B: topical dorsal flank, 1 × 1 cm gauze pad with 0.2 mL Test Article 2 (Methadone-Diisopropyl Adipate Solution 23.9%), 480 min, individual rats B1-B3",159 ng/mL and 46.7 ng/mL and 300 ng/mL
same,Concentrations of Methadone in Rat Plasma Samples,"[2]; Study 2 Group B: topical dorsal flank, 1 × 1 cm gauze pad with 0.2 mL Test Article 2 (Methadone-Diisopropyl Adipate Solution 23.9%), 1440 min, individual rats B1-B3",117 ng/mL and 168 ng/mL
same,Concentrations of Methadone in Rat Plasma Samples,"[2]; Study 2 Group B: topical dorsal flank, 1 × 1 cm gauze pad with 0.2 mL Test Article 2 (Methadone-Diisopropyl Adipate Solution 23.9%), 2160 min, individual rats B1-B3",82.7 ng/mL and 126 ng/mL and 59.4 ng/mL
same,Concentrations of Methadone in Rat Plasma Samples,"[2]; Study 2 Group B: topical dorsal flank, 1 × 1 cm gauze pad with 0.2 mL Test Article 2 (Methadone-Diisopropyl Adipate Solution 23.9%), 2880 min, individual rats B1-B3",49.4 ng/mL and 173 ng/mL and 34.0 ng/mL
same,Concentrations of Methadone in Rat Plasma Samples,"[2]; Study 2 Group C: topical dorsal flank, 1 × 1 cm gauze pad with 0.2 mL Test Article 3 (Methadone-DEET Solution 10%), 15 min, individual rats C1-C3",0.84 ng/mL and 1.72 ng/mL and 1.04 ng/mL
same,Concentrations of Methadone in Rat Plasma Samples,"[2]; Study 2 Group C: topical dorsal flank, 1 × 1 cm gauze pad with 0.2 mL Test Article 3 (Methadone-DEET Solution 10%), 45 min, individual rats C1-C3",2.42 ng/mL and 1.71 ng/mL
same,Concentrations of Methadone in Rat Plasma Samples,"[2]; Study 2 Group C: topical dorsal flank, 1 × 1 cm gauze pad with 0.2 mL Test Article 3 (Methadone-DEET Solution 10%), 90 min, individual rats C1-C3",4.7 ng/mL and 2.89 ng/mL
same,Concentrations of Methadone in Rat Plasma Samples,"[2]; Study 2 Group C: topical dorsal flank, 1 × 1 cm gauze pad with 0.2 mL Test Article 3 (Methadone-DEET Solution 10%), 120 min, individual rats C1-C3",3.84 ng/mL and 7.73 ng/mL and 3.39 ng/mL
same,Concentrations of Methadone in Rat Plasma Samples,"[2]; Study 2 Group C: topical dorsal flank, 1 × 1 cm gauze pad with 0.2 mL Test Article 3 (Methadone-DEET Solution 10%), 480 min, individual rats C1-C3",18.0 ng/mL and 29.6 ng/mL and 14.3 ng/mL
same,Concentrations of Methadone in Rat Plasma Samples,"[2]; Study 2 Group C: topical dorsal flank, 1 × 1 cm gauze pad with 0.2 mL Test Article 3 (Methadone-DEET Solution 10%), 1440 min, individual rats C1-C3",20.0 ng/mL and 20.6 ng/mL
same,Concentrations of Methadone in Rat Plasma Samples,"[2]; Study 2 Group C: topical dorsal flank, 1 × 1 cm gauze pad with 0.2 mL Test Article 3 (Methadone-DEET Solution 10%), 2160 min, individual rats C1-C3",17.3 ng/mL and 35.1 ng/mL and 19.0 ng/mL
same,Concentrations of Methadone in Rat Plasma Samples,"[2]; Study 2 Group C: topical dorsal flank, 1 × 1 cm gauze pad with 0.2 mL Test Article 3 (Methadone-DEET Solution 10%), 2880 min, individual rats C1-C3",11.1 ng/mL and 23.7 ng/mL and 12.6 ng/mL
same,concentration at 45 min,"[2]; rat, in vivo, 0.2 mL of 10% methadone solution, Study 2 Group C: topical dorsal flank, 1 × 1 cm gauze pad with 0.2 mL Test Article 3 (Methadone-DEET Solution 10%), 45 min, individual rats C1-C3, read-out: Concentrations of Methadone in Rat Plasma Samples",2.08 ng/mL
same,concentration at 90 min,"[2]; rat, in vivo, 0.2 mL of 10% methadone solution, Study 2 Group C: topical dorsal flank, 1 × 1 cm gauze pad with 0.2 mL Test Article 3 (Methadone-DEET Solution 10%), 90 min, individual rats C1-C3, read-out: Concentrations of Methadone in Rat Plasma Samples",3.17 ng/mL
same,concentration at 1440 min,"[2]; rat, in vivo, 0.2 mL of 10% methadone solution, Study 2 Group C: topical dorsal flank, 1 × 1 cm gauze pad with 0.2 mL Test Article 3 (Methadone-DEET Solution 10%), 1440 min, individual rats C1-C3, read-out: Concentrations of Methadone in Rat Plasma Samples",27.8 ng/mL
same,concentration at 15 min,"[2]; rat, in vivo, 0.2 mL of 23.9% methadone solution, Study 2 Group B: topical dorsal flank, 1 × 1 cm gauze pad with 0.2 mL Test Article 2 (Methadone-Diisopropyl Adipate Solution 23.9%), 15 min, individual rats B1-B3, read-out: Concentrations of Methadone in Rat Plasma Samples",2.75 ng/mL
same,concentration at 90 min,"[2]; rat, in vivo, 0.2 mL of 23.9% methadone solution, Study 2 Group B: topical dorsal flank, 1 × 1 cm gauze pad with 0.2 mL Test Article 2 (Methadone-Diisopropyl Adipate Solution 23.9%), 90 min, individual rats B1-B3, read-out: Concentrations of Methadone in Rat Plasma Samples",24.8 ng/mL
same,concentration at 1440 min,"[2]; rat, in vivo, 0.2 mL of 23.9% methadone solution, Study 2 Group B: topical dorsal flank, 1 × 1 cm gauze pad with 0.2 mL Test Article 2 (Methadone-Diisopropyl Adipate Solution 23.9%), 1440 min, individual rats B1-B3, read-out: Concentrations of Methadone in Rat Plasma Samples",116 ng/mL
same,concentration at 2 min,"[2]; rat, in vivo, iv, 0.125 mg, Study 2 Group A: I.V. tail vein, 0.25 mL Test Article 1 (0.5 mg/mL Methadone-Saline Solution), 2 min, individual rats A1-A3, read-out: Concentrations of Methadone in Rat Plasma Samples",36.3 ng/mL
same,concentration at 20 min,"[2]; rat, in vivo, iv, 0.125 mg, Study 2 Group A: I.V. tail vein, 0.25 mL Test Article 1 (0.5 mg/mL Methadone-Saline Solution), 20 min, individual rats A1-A3, read-out: Concentrations of Methadone in Rat Plasma Samples",55.9 ng/mL
same,concentration at 40 min,"[2]; rat, in vivo, iv, 0.125 mg, Study 2 Group A: I.V. tail vein, 0.25 mL Test Article 1 (0.5 mg/mL Methadone-Saline Solution), 40 min, individual rats A1-A3, read-out: Concentrations of Methadone in Rat Plasma Samples",35.4 ng/mL
same,concentration at 60 min,"[2]; rat, in vivo, iv, 0.125 mg, Study 2 Group A: I.V. tail vein, 0.25 mL Test Article 1 (0.5 mg/mL Methadone-Saline Solution), 60 min, individual rats A1-A3, read-out: Concentrations of Methadone in Rat Plasma Samples",28.1 ng/mL
same,concentration at 480 min,"[2]; rat, in vivo, iv, 0.125 mg, Study 2 Group A: I.V. tail vein, 0.25 mL Test Article 1 (0.5 mg/mL Methadone-Saline Solution), 480 min, individual rats A1-A3, read-out: Concentrations of Methadone in Rat Plasma Samples",1.54 ng/mL
same,concentration at 2160 min,"[2]; rat, in vivo, iv, 0.125 mg, Study 2 Group A: I.V. tail vein, 0.25 mL Test Article 1 (0.5 mg/mL Methadone-Saline Solution), 2160 min, individual rats A1-A3, read-out: Concentrations of Methadone in Rat Plasma Samples",0.796 ng/mL
same,concentration at 12 h,[3]; 12 hr,5.36 ng/mL
same,concentration at 18 h,[3]; 18 hr,4.95 ng/mL
same,concentration at 139.5 h,[3]; 139.5 hr,2.24 ng/mL
same,Irritation of human skin by topical methadone composition,[4],lack of irritation
